Assay results taken from patent publication US10172859B2, “Arylquinazolines” (Merck Patent GmbH, priority 2013, dated 2019).
Where two headings read alike, the source gives them in different places.

Experiments:
DNA-PK/protein complex = DNA-PK/protein complex (Homo sapiens (Human), UniProt P78527); experiment: DNA-PK assay (biochemical), flashplate kinase assay
Protocol: A) DNA-PK Assay (Biochemical)
The kinase assay was carried out in streptavidin-coated […] microtitre flashplates. […] The reaction was stopped using 50 μl/well of 200 mM EDTA. After incubation for a further 30 min at room temperature, the liquid was removed. Each well was washed three times with 100 μl of 0.9% saline solution. A nonspecific reaction (blank value) was determined using 10 μM of an innate kinase inhibitor. The radioactivity measurement was carried out using a TopCount. IC50 values were calculated in RS1.

Kv11.1 (hERG) channel [1] = target: T1, Kv11.1 (hERG) channel (Homo sapiens (Human), UniProt Q12809); experiment: Kv11.1 (hERG) ion channel activity (patch clamp assay)
T1 sequence (Q12809 whole entry): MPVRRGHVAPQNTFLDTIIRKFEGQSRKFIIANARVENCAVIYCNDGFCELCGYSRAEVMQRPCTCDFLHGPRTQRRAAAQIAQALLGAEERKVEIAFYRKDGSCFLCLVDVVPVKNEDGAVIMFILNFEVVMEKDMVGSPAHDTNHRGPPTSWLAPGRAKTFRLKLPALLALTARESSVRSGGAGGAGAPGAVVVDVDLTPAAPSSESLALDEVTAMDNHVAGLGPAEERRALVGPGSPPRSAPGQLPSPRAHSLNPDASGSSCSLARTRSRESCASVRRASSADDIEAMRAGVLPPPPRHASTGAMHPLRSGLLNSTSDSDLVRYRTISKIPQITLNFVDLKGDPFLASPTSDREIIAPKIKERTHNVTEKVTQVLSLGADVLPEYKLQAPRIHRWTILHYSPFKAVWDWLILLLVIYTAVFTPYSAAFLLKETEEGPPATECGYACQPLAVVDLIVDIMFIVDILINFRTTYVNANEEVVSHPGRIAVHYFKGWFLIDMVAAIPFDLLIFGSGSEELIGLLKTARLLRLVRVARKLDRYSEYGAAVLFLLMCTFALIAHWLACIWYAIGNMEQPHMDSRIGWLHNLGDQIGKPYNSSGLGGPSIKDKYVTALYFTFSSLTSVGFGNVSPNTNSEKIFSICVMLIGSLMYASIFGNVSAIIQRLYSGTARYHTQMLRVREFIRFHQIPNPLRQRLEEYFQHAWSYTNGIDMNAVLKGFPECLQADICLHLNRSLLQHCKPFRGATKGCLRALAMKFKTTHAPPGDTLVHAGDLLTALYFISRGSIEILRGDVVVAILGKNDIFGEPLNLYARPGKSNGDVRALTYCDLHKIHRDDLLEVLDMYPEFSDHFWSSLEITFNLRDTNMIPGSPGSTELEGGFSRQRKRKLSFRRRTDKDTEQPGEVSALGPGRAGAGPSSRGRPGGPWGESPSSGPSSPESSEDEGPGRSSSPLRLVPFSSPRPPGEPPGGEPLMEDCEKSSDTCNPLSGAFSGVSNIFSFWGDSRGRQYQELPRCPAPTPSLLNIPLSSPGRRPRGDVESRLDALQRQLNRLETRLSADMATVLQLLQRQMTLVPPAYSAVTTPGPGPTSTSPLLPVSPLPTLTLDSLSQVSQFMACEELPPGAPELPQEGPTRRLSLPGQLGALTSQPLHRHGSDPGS
Protocol: (§1) C) Kv11.1 (hERG) ION CHANNEL ACTIVITY (Patch Clamp Assay)
(§2) The patch-clamp measurement was carried out at room temperature in whole-cell configuration on human embryonic kidney cells (HEK293) which have been transfected in a stable manner with the hERG gene.
(§3) The whole-cell configurations were carried out using an automated patch clamp device (Patchliner™, Nanion Technologies, Munich). This is a glass chip-based system with which automated whole-cell measurements on up to 8 cells simultaneously are possible. The glass chip has a hole of defined size to which the cell is transferred into the Gigaseal by application of a reduced pressure and brought into the whole-cell configuration. Buffer, cell suspension and test substances were added to microchannels of the chip using a Teflon-coated pipette. The cells were clamped to a holding potential of −80 mV. For measurement of substancepromoted inhibition of the Kv11.1 channel, the following voltage protocol was applied at 10-second intervals: 51 ms/−80 mV, 500 ms/+40 mV, 500 ms/−40 mV, 200 ms/−80 mV. The leakage current is subtracted by means of the P4 method. The cells were resuspended in extracellular buffer (EC) and applied to the chip. After the cell had been collected, the seal was improved by addition of a seal enhancer buffer. As soon as the whole-cell configuration had been reached, the seal enhancer buffer was washed out and replaced by extracellular buffer. The measurement started in EC for 1.5 min. DMSO (vehicle control, 0.1% of DMSO) was then applied, and the control current was recorded for 3 min. The test substance was subsequently added twice in the same concentration, and the potassium current was measured for 3.5 min in each case.
(§4) The reference substance used was the Kv11.1 (hERG) ion channel blocker quinidine. The effects of test substances and quinidine were standardised to the associated vehicle control. The effect on the Kv11.1 (hERG) channel activity was assessed from the potassium current at −40 mV. For the calculation, the current was evaluated for the respective final trace.
(§5) During the measurement, an aliquot of the test substance was taken for concentration determination. The sample was measured immediately by HPLC, and the final concentration was determined from a calibration curve.

[2] = target: phospho-serine 2056 DNA-PK in HCT116 cells (Homo sapiens (Human), UniProt P78527); experiment: DNA-PK phosphorylation at serine 2056 (cellular), ELISA in bleomycin-treated HCT116 cells; format: cell-based; conditions: read-out: IC50 pDNA-PK
Protocol: HCT116 cells were cultivated at 37° C. and 10% CO2 in MEM alpha medium with 10% of foetal calf serum and 2 mM glutamine. The cells were detached from the base of the culture vessels with the aid of trypsin/EDTA, centrifuged off in centrifuge tubes, taken up in fresh medium, and the cell density was determined. 100,000 cells were sown in 1 ml of culture medium per cavity of a 24-well cell culture plate and cultivated overnight. Next day, 10 μM bleomycin (DNA intercalator and inductor of DNA double-strand breaks) and test substances in fresh culture medium were added to the cells, and these were cultivated for a further six hours. […] The 96-well ELISA plates were subsequently treated with a detection antibody (Abcam ab79444: total DNA-PK) and a streptavidin-HRP conjugate. The development of the enzymatic reaction was carried out with the aid of a chemiluminescent reagent, the chemiluminescence was measured with the aid of a Mithras LB940. The signals with the phospho-DNA-PK-specific antibody were standardised to the signal with the antibody against the total protein DNA-PKc. […] The DMSO control was used as blank.

Kv11.1 (hERG) channel [3] = target: T1, Kv11.1 (hERG) channel
Protocol: as §1, §2, §3, §4, §5

[4] = cellular, HCT116, 10 μM bleomycin, six hours

SMILES | IC50 (DNA-PK/protein complex; enzymatic, 5 μM ATP) [µM] | IC50 [2, 4] [µM] | Ki (Kv11.1 (hERG) channel [1]) [µM] | also measured
COc1nnc(Cl)cc1C(O)c1ccc(F)c(-c2ncnc3cc(N4CCOCC4)ccc23)c1 (centres unmarked) [Example 9] | 0.003 to 0.007 | < 0.5 | – | Ki (Kv11.1 (hERG) channel [1]; read-out: Ki [Kv1.11 hERG], HEK293 transfected with hERG gene, whole-cell): < 10 µM
CCNCc1csc(C(O)c2cc(-c3ncnc4cc(N5CCOCC5)ccc34)c(F)cc2Cl)n1 (centres unmarked) [Example 190] | – | – | – | Ki (Kv11.1 (hERG) channel [3]): 15 to 25 µM
Cn1nccc1C(O)c1ccc(F)c(-c2nc(Cl)nc3cc(N4CCOCC4)ccc23)c1 (centres unmarked) [Example 214, [3-(2-Chloro-7-morpholin-4-yl-quinazolin-4-yl)-4-fluoro-phenyl]-(2-methyl-2H-pyrazol-3-yl)-methanol] | 0.003 to 0.007 | 10 to 30 | 15 to 25 | –
COc1nccnc1C(C(N)=O)c1cc(-c2ncnc3cc(N4CCOCC4)ccc23)ccc1F (centres unmarked) [Example 316] | – | – | 15 to 25 | IC50 (DNA-PK/protein complex; biochemical DNA-PK assay): > 0.03 µM; IC50 ([2]; DNA-PK phosphorylation at serine 2056, HCT116 cells): 5 to 10 µM
OC(c1ccc(F)c(-c2ncnc3cc(N4CCOCC4)ccc23)c1)c1nccnc1I (centres unmarked) [Example 462, [4-Fluoro-3-(7-morpholin-4-yl-quinazolin-4-yl)-phenyl]-(3-iodo-pyrazin-2-yl)-methanol] | – | – | – | Ki (Kv11.1 (hERG) channel [1]; read-out: Ki [Kv1.11 hERG], hERG patch clamp assay): 15 to 25 µM
